Data on 78 molecules can be found in PubChem BioAssay AID618 (Sanford-Burnham Center for Chemical Genomics, 2007).

In this test the test system is MT1-MMP promoter luciferase reporter cells, luminescence. The test is described as follows: inhibitors of MT1-MMP promoter transcription, cell-based, luciferase reporter, luminescence (AID 618).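 Further: actives suppress MT1-MMP promoter-driven transcription so potencies describe inhibitors.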

The structures appear in SMILES notation. Active and inactive are the calls of the source. How the calls were made is not given here. Bounds are passed on as bounds.

On to `CCc1ccc(NC(=O)c2noc3c2CCC3)cc1`, for which the EC50 was 4 µM.

Regarding `COC(=O)Cc1ccc(NC(=O)c2ccc(C(C)(C)C)cc2)cc1`, the EC50 was 0.31 µM.

Turning to `O=c1/c(=C/c2ccccn2)sc2nc3ccccc3n12`, the EC50 was 10 µM. The same measure for `Cc1ccc(-c2nc3n(n2)Cc2ccccc2-3)cc1`: 1.49 µM; for `Cc1ccc(-c2nc(N/N=C/c3ccncc3)c3ccccc3n2)cc1`: 0.57 µM. With `CN1/C(=C\C=C\C2=[N+](C)c3ccc4ccccc4c3C2(C)C)C(C)(C)c2ccccc21`, the EC50 is 4.71 µM. The same measure for `CN1CCN(CC(=O)N2CCn3c4c(c5cc(C6CCCCC6)ccc53)CCCC42)CC1` (stereo not drawn): 12 µM. The figure for `O=C(O)CSCC(=O)Nc1ccc(C2CCCCC2)cc1` is 0.58 µM; for `CC1CC(C)(C)Nc2ccc(OC(=O)c3ccco3)cc21` (stereo not drawn) it is 3.01 µM; for `Oc1c(CN2CCc3ccccc3C2)cc(Cl)c2cccnc12` it is 5.81 µM.

Turning to `COc1ccc(C(=O)Nn2c(SCC(=O)NCc3ccco3)nc3ccccc3c2=O)cc1`, the EC50 is 1.14 µM. The figure for `c1ccc(-c2cn3nc4c(nc3n2)CCCC4)cc1` is 0.54 µM; for `COC(=O)c1nn(-c2ccc3c(c2)CCN3C(C)=O)cc1O` it is 0.61 µM. `COCCn1c(C)cc(C(=O)CSc2ccc(NC(C)=O)cc2)c1C`: the EC50 is 8.54 µM. The same measure for `O=c1c2sc(-c3ccccc3)cc2nc2n1CCC2`: 4.05 µM. The figure for `c1ccc(-c2nc3cc4ccccc4cc3[nH]2)nc1` is 0.8 µM.

As to `Cc1ccc(C(=O)COC(=O)c2cccs2)cc1`, the EC50 is 18.6 µM. The same measure for `CC(C)Nc1ncnc2c1cnn2-c1ccc(Cl)cc1`: 3.85 µM; for `O=C(Nc1nc2ccccc2[nH]1)c1ccccc1`: 3.53 µM; for `COc1cccc(C(=O)Nc2nc3ccccc3[nH]2)c1`: 0.96 µM. The same measure for `Cc1cc(C(=O)Nc2cccc(C(=O)O)c2)oc1C`: 0.82 µM; for `O=C(N/N=C/c1ccc([N+](=O)[O-])s1)c1ccccc1Br`: 2.8 µM; for `O=C(Nc1ccc2c(c1)OCCO2)c1cncc(Br)c1`: 7.14 µM. The figure for `COc1cccc(C(=O)NCCC2=CCCCC2)c1` is 8.74 µM; for `CC(=O)c1sc(NC(=O)C2COc3ccccc3O2)nc1C` (stereo not drawn) it is 5.39 µM. As to `Cc1ccnc(Nc2nc3ccccc3o2)n1`, the EC50 was 13 µM. The figure for `CCc1ccc2oc(-c3cccc(N)c3)nc2c1` is 3.93 µM; for `CCOc1ccc2nc(NC(=O)c3ccoc3C)sc2c1` it is 0.97 µM; for `CCCc1ccc(-c2ccc(F)c(N)c2)nc1` it is 0.66 µM. The same measure for `CCc1ccc(-c2nnn(CCC(=O)OC)n2)cc1`: 2.02 µM; for `O=C(CN1C(=O)c2ccccc2S1(=O)=O)c1ccccc1`: > 50 µM (inactive); for `Fc1ccc(-c2nnc(-c3ccc(Cl)cc3Cl)o2)cc1`: 8.19 µM.

`Cc1cc(/C=N/n2cnnc2)c(C)n1-c1ccc(OCc2ccc(Cl)cc2Cl)cc1`: the concentration for a half-maximal effect (EC50) is 9.47 µM. The figure for `Cc1ccc2nc(-c3cc(N)cc(N)c3)oc2c1` is 1.57 µM; for `Cc1cc(NC(=O)CSc2nc(-c3ccco3)cc(C(F)(F)F)n2)no1` it is > 50 µM (inactive).

For `COc1ccc(N=CC2=C(O)c3ccccc3C2=O)c(OC)c1`, the half-maximal effective concentration (EC50) was 0.79 µM.

For the molecule `O=C(Nc1ccc(NC(=O)c2ccco2)nc1)c1ccccn1`, the EC50 was 9.01 µM.

Turning to `Cc1cc(N)n2nc(-c3ccccc3)cc2n1`, the EC50 was 34.4 µM. The same measure for `COc1ccc(C(=O)Nn2c(SCC(=O)N3CCC(C)CC3)nc3ccccc3c2=O)cc1`: 1.98 µM; for `COCCn1c(C)cc(C2=NNC(=Nc3ccccc3)SC2)c1C`: 5.3 µM. As for `Cc1ccc(-c2nc3cc(C)ccc3o2)cc1`, the EC50 was 2.32 µM. On to `Cc1cc(-c2csc(N)n2)c(C)n1CCC(C)C`, for which the EC50 was 39.9 µM. In the case of `O=c1c2c(nc3cc(-c4ccc(F)cc4)[nH]n13)CCCC2`, the EC50 is 6.48 µM. Regarding `N#Cc1cc2c(nc1SCC(=O)Nc1nccs1)CCCCC2`, the EC50 was 7.77 µM. The same measure for `Nc1ccc2nc(-c3ccccc3)sc2c1`: 1.91 µM; for `COc1cc([N+](=O)[O-])ccc1N/C=C/C(=O)c1cccs1`: 2.05 µM; for `CNc1nnc(-c2ccc(N(C)C)cc2)s1`: 5.1 µM. The figure for `COc1ccccc1-c1nc(-c2ccccn2)no1` is 1.82 µM; for `Cc1cc(NCCCn2ccnc2)n2ncc(-c3ccc(Cl)cc3)c2n1` it is 8.72 µM; for `CCCCCN=Cc1c(C)[nH]n(-c2nc3ccccc3s2)c1=O` it is 6.14 µM. The same measure for `Clc1cccc(-c2nnc(-c3ccccc3)o2)c1`: 7.03 µM. Consider `O=C(/C=C\Nc1ccccn1)c1ccccc1`, for which the 50% effective concentration (EC50) was 2.01 µM.

As to `CCc1ccc(-c2cc(C(=O)Nn3cnnc3)c3ccccc3n2)cc1`, the EC50 is 2.12 µM. The figure for `CC1CCN(c2nc3ccc(C(=O)O)cc3s2)CC1` is 0.35 µM; for `CN(C(=O)c1ccco1)c1nc2c(s1)CCCC2` it is 7.12 µM; for `CCOC(=O)c1sc2nc3c(cc2c1N)COC(C(C)C)C3` (stereo not drawn) it is 1.62 µM. Regarding `Cc1ccc2nc(-c3cccc(N)c3)oc2c1`, the EC50 was 3.71 µM. As for `Cc1ccc(C(=O)CSc2nnnn2C(C)C)c(C)c1`, the EC50 was 1.7 µM.

On to `Cc1ccc(-c2csc3ncnc(Sc4nnc(CN5CCCCCC5=O)o4)c23)cc1`, for which the EC50 was 15 µM. On to `Cc1ccc(NC(=O)N2CCc3ccccc32)cc1`, for which the EC50 is 3.38 µM.

Consider `Cn1ccnc1SCc1cn2cc(Br)ccc2n1`, for which the EC50 was 15 µM. The figure for `COc1ccccc1-c1cc(C(F)(F)F)nc(S(=O)(=O)CCCC(=O)N2CCOCC2)n1` is 22 µM; for `Cc1ccc(-c2nc3cc(NC(=O)C(C)C)ccc3o2)cc1` it is 5.62 µM; for `CC(=O)Nc1ccc2oc(-c3cc(F)c(F)cc3Cl)nc2c1` it is 3.48 µM. Regarding `C=CCn1c(C)cc(C(=O)CSc2ccc(NC(C)=O)cc2)c1C`, the EC50 was 2.37 µM. The same measure for `COc1ccc(C(=O)Nc2ccc3c(c2)OCCO3)cc1`: 2.98 µM; for `COC(=O)CCn1nnc(-c2ccc(C(C)C)cc2)n1`: 0.11 µM. In the case of `O=C(/C=C/Nc1cccc(O)c1)c1ccccc1`, the EC50 was 1.32 µM. The figure for `COC(=O)c1ccc(-c2nc(-c3cccs3)no2)cc1` is 1.12 µM; for `CCN(CC)c1ccc2cc(NC(=O)CCC(=O)O)c(=O)oc2c1` it is 0.67 µM. The figure for `Cc1cc(N2CCOCC2)n2ncc(-c3ccccc3)c2n1` is 3.57 µM; for `O=C(Nc1ccc(CN2CCOCC2)cc1)c1cc2ccccn2n1` it is 3.35 µM. Regarding `COc1ccc(-c2nc3ccccc3[nH]2)cc1`, the EC50 is 2.72 µM. The same measure for `O=C(Nc1cccc(O)c1)c1noc2c1CCCCC2`: 0.23 µM; for `Cc1ccc(NC2=Nc3ccccc3CC2)cc1`: 2.72 µM; for `O=C(CSc1nnc(-c2ccccc2)o1)Nc1ccccc1F`: 0.82 µM. As to `N#Cc1c(NC(=O)CSc2ncn[nH]2)sc2c1CCCC2`, the EC50 is 0.73 µM. The figure for `O=C(Nc1nc2c(s1)CCCC2)C1COc2ccccc2O1` (stereo not drawn) is 2.4 µM.
